The record followed here is patent US11780845B2 (Relay Therapeutics, Inc., priority 2019, dated 2023).

Test [1] concerns the target T1, FGFR2 (Homo sapiens (Human), UniProt P21802). Briefly: FGFR2 Biochemical Caliper Assay. The method, then: Compounds of the present invention were also tested in a FGFR2 Biochemical Caliper Assay. Compounds were prepared in 10 mM DMSO solution and serially diluted into 11 concentrations by 3-fold dilution. […] 5 uL of ATP solution (100 uM) was added to start the reaction and the plate was incubated for 90 minutes, then 70 uL of stopping buffer (0.5M EDTA) was added to terminate the reaction. Each well was analyzed using EZ reader.

Test [2] deals with SNU16 cells. The test can be described thus: SNU16 Cancer Cell Line Proliferation Assay. Type of test: cell-based. As to conditions: SNU-16 cells. Here is the method:
Compounds of the present invention were also tested in a SNU16 Cancer Cell Line Proliferation Assay, Test compounds were prepared in a 10 mM DMSO stock solution. 45 uL of stock solution was transferred to a 384 well plate, and a 3-fold 11-point dolution was performed. SNU16 cells in a 384 well cell culture plate were seeded and incubated at 37 degrees for 24 hours. 40 nL of each concentration of compound was transferred from the compound plate to a corresponding well in the cell culture plate by Echo550 liquid handler. The plates were incubated for 96 hours, then equilibrated to room temperature for 15 minutes. 20 uL of CellTiter Glo reagent is added into each well, then the plate was shaken gently for 30 minutes at room temperature. Chemiluminescence was then read on an EnVision reader.

The target of test [3] is T1, FGFR2. The test can be described thus: Biochemical FGFR2 Caliper assay.
Test [4] concerns SNU-16. Briefly: Cell SNU-16 assay. In kind it is cell-based.
Setting [5] is: Homo sapiens, SNU-16, SNU-16 cells.

A word on the IC50: it is the concentration that inhibits the measured activity by half.

T1 sequence (P21802 22-821): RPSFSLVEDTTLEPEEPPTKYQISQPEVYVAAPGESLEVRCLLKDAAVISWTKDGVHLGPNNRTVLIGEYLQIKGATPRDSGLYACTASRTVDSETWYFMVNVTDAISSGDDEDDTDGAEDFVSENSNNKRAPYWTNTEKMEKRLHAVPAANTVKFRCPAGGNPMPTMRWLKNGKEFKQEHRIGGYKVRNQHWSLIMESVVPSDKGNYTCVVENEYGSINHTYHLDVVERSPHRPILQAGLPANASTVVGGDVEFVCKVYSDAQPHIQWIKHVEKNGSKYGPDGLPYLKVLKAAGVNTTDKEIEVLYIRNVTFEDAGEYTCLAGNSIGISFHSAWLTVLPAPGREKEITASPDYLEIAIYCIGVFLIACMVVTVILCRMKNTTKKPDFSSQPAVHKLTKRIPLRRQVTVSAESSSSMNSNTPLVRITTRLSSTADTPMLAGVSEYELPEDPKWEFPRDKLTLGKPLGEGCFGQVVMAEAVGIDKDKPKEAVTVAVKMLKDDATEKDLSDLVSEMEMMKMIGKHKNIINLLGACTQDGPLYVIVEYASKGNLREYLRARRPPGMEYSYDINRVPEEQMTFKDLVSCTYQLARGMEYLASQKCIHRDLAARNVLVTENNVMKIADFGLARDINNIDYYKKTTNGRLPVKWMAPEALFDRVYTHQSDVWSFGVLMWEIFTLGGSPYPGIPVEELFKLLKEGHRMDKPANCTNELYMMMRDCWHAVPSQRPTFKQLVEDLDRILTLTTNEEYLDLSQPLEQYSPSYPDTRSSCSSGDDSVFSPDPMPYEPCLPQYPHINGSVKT

In the case of `C=C(C)C(=O)Nc1ccc(-c2c(C3CCN(C(=O)N4CCCC4)CC3)c3c(N)ncnc3n2C)cc1` [Example 197], the results for the IC50 in test [1] and in test [2] (Homo sapiens) were 1000 to 100000 nM and 250 to 1000 nM, respectively.

As to `C=CC(=O)N1CCC(c2c(-c3ccccc3)c3c(N)ncnc3n2C)C1` (stereo not shown) [Example 700], the concentration for half-maximal inhibition (IC50) in test [1] fell in the range of 1000 to 100000 nM; in test [2] (Homo sapiens) it was 250 to 1000 nM. For `C=C(C)C(=O)Nc1ccc(-c2c(-c3ccc(C(=O)N4CC5CCC5C4)cc3)c3c(N)ncnc3n2C)cc1` (stereo not shown) [Example 291] the same measures were less than 100 nM and not above 100 nM. With `C=C(C)C(=O)N1CCC(c2c(-c3ccc(Oc4cccc(C)n4)cc3)c3c(N)ncnc3n2C)CC1` [Example 693], the IC50 in test [1] is 250 to 1000 nM; in test [2] (Homo sapiens), 1000 to 100000 nM.

Turning to `C=CC(=O)N1CCC(c2c(-c3cnn(C4CCNCC4)c3)c3c(N)ncnc3n2C)C1` (stereo not shown) [Example 742], the IC50 in test [1] and in test [2] (Homo sapiens) was 1000 to 100000 nM throughout.

In the case of `C=C(C)C(=O)Nc1ccc(-c2c(-c3ccc(Oc4cccc(C)n4)cn3)c3c(N)ncnc3n2C)cc1` [Example 460], the 50% inhibitory concentration (IC50) in test [1] is less than 100 nM; in test [2] (Homo sapiens) it was not above 100 nM.

In the case of `C=CC(=O)N1CCCC(c2c(-c3ccc(Oc4cccc(C)n4)c(OC)c3)c3c(N)ncnc3n2C)C1` (stereo not shown) [Example 661], the IC50 in test [1] and in test [2] (Homo sapiens) was 1000 to 100000 nM each time.

Turning to `C=C(C)C(=O)Nc1ccc(-c2c(-c3ccc(Oc4cccc(OC)n4)cc3)c3c(N)ncnc3n2C)cc1` [Example 342], the IC50 was less than 100 nM in test [1] and not above 100 nM in test [2] (Homo sapiens). On to `C=CC(=O)Nc1ccc(-c2c(-c3ccc(Oc4ncc(Cl)cn4)cc3)c3c(N)ncnc3n2C)cc1` [Example 103], for which the IC50 in test [1] was less than 100 nM; in test [2] (Homo sapiens) it was not above 100 nM. For `C=CC(=O)N1CCC(c2c(-c3ccc(OC4CCCC4)cc3)c3c(N)ncnc3n2C)C1` (stereo not shown) [Example 716], in that order: less than 100 nM and not above 100 nM. Regarding `C=C(C)C(=O)Nc1ccc(-c2c(-c3ccc(C(=O)c4nccc(C)n4)cc3C)c3c(N)ncnc3n2C)cc1` [Example 471], the IC50 in test [1] and in test [2] (Homo sapiens) was 100 to 250 nM throughout. For `C=C(C)C(=O)Nc1ccc(-c2c(-c3ccc(Oc4nccc(C)n4)c(F)c3)c3c(N)ncnc3n2C)c(C(F)F)c1` [Example 496], the IC50 in test [2] is not above 100 nM. In test [2], `C=C(C)C(=O)Nc1ccc(-c2c(-c3ccc(Oc4nccc(C)n4)c(F)c3)c3c(N)ncnc3n2C)c(C)c1` [Example 495] gave an IC50 not above 100 nM. `CC#CC(=O)Nc1ccc(-c2c(-c3ccc(Oc4cccc(C)n4)c(OC)c3)c3c(N)ncnc3n2C)cc1` [Example 18] displayed an IC50 in test [2] (Homo sapiens) not above 100 nM. In test [2] (Homo sapiens), `C=CC(=O)N1CCC(c2c(-c3ccc(N4CCN(C(C)C)CC4)cc3)c3c(N)ncnc3n2C)C1` (stereo not shown) [Example 770] returned an IC50 of 1000 to 100000 nM.

With `C=C(C)C(=O)Nc1ccc(-c2c(-c3ccc(Oc4nccc(C)n4)c(F)c3)c3c(N)ncnc3n2C)cc1` [Example 343], the IC50 in test [2] (Homo sapiens) is not above 100 nM. In test [2], `C=C(C)C(=O)Nc1ccc(-c2c(-c3ccc(Oc4nccc(C)n4)c(F)c3)c3c(N)ncnc3n2C)c(C)c1` [Example 531] registered a half-inhibitory concentration (IC50) not above 100 nM. The compound `C=C(C)C(=O)Nc1ccc(-c2c(-c3ccc(Oc4nccc(C)n4)c(F)c3)c3c(N)ncnc3n2C)c(CO)c1` [Example 535] gave an IC50 in test [2] not above 100 nM. In turn, `C=C(C)C(=O)Nc1ccc(-c2c(-c3ccc(Oc4nccc(C)n4)c(F)c3)c3c(N)ncnc3n2C)c(C(F)F)c1` [Example 527] gave an IC50 in test [2] not above 100 nM.

As to `C#Cc1cc(OC)c(-c2c(-c3ccc(Oc4nccc(C)n4)c(F)c3)c3c(C)ncnc3n2C)cn1` [Example 1418], the half-maximal inhibitory concentration (IC50) was less than 100 nM in test [3] and not above 100 nM in test [4] (setting [5]). For `C#Cc1ccc(-c2c(-c3ccc(Oc4nccc(C)n4)c(F)c3)c3c(N)ncnc3n2C)c(CC)n1` [Example 1243], in that order: less than 100 nM and not above 100 nM.

`C=C(C)C(=O)Nc1ccc(-c2c(-c3ccc(C(=O)NC4CCC4)c(OC)c3)c3c(N)ncnc3n2C)cc1` [Example 911]: the IC50 is less than 100 nM in test [3] and not above 100 nM in test [4] (setting [5]). As for `Cc1ccnc(Oc2ccc(-c3c(-c4ccc(NC(=O)C5=CCOC5)cc4)n(C)c4ncnc(N)c34)cc2)n1` [Example 904], the IC50 in test [3] and in test [4] (setting [5]) was 1000 to 100000 nM each time. `C=C(C)C(=O)Nc1ccc(-c2c(C3=CC[C@@H](C(=O)N4CCC[C@H]4C4CC4)CC3)c3c(N)ncnc3n2C)cc1` [Example 1056]: the 50% inhibitory concentration (IC50) in test [3] was 250 to 1000 nM; in test [4] (setting [5]), not above 100 nM. On to `C=CC(=O)N1CC=C(c2c(C3=CC[C@@H](C(=O)N4CCCC4)CC3)c3c(N)ncnc3n2C)C1` (single isomer, unassigned) [Example 872], for which the IC50 in test [3] and in test [4] (setting [5]) was 100 to 250 nM each time.

On to `C=CC(=O)N1CC=C(c2c(C3=CC[C@H](C(=O)N4CCCC4)CC3)c3c(N)ncnc3n2C)C1` (single isomer, unassigned) [Example 871], for which the IC50 in test [3] and in test [4] (setting [5]) was 250 to 1000 nM throughout. On to `CC#Cc1ncc(-c2c(-c3ccc(Oc4nccc(C)n4)cc3)c3c(N)ncnc3n2C)c(C)n1` [Example 1162], for which the concentration for half-maximal inhibition (IC50) is less than 100 nM in test [3] and not above 100 nM in test [4] (setting [5]). For `C#Cc1ncc(-c2c(-c3ccc(Oc4nccc(C)n4)c(F)c3)c3c(C)ncnc3n2C)c(C)c1OC` [Example 1397], in that order: 250 to 1000 nM and not above 100 nM. In the case of `C=C(C)C(=O)Nc1ccc(-c2c(-c3cnc(-c4ccccc4C)s3)c3c(N)ncnc3n2C)cc1` [Example 1422], the IC50 in test [3] and in test [4] (setting [5]) was 250 to 1000 nM throughout.

Regarding `C=C(C)C(=O)Nc1ccc(-c2c(C3=CC[C@@H](C(=O)N4CCCC45COC5)CC3)c3c(N)ncnc3n2C)c(F)c1` [Example 1011], the IC50 in test [3] was less than 100 nM; in test [4] (setting [5]), not above 100 nM. `C=C(C)C(=O)Nc1ccc(-c2nn3ccnc(N)c3c2C2=CCC(C(=O)N3CCCC3)CC2)cc1` (stereo not shown) [Example 868]: the concentration for half-maximal inhibition (IC50) in test [3] and in test [4] (setting [5]) was 1000 to 100000 nM throughout.

For the compound `C=C(C)C(=O)Nc1ccc(-c2c(-c3ccc4nccn4c3)c3c(N)ncnc3n2C)cc1` [Example 1345], the IC50 in test [3] and in test [4] (setting [5]) was 1000 to 100000 nM throughout.

Regarding `C=C(C)C(=O)Nc1ccc(-c2c(-c3cnc4nncn4c3)c3c(N)ncnc3n2C)cc1` [Example 1351], the half-inhibitory concentration (IC50) in test [3] and in test [4] (setting [5]) was 1000 to 100000 nM each time. On to `C=C(C)C(=O)Nc1ccc(-c2c(C3=CC[C@H](C(=O)N4CCCC45COC5)CC3)c3c(N)ncnc3n2C)cc1` (single isomer, unassigned) [Example 913], for which the values for the half-inhibitory concentration (IC50) in test [3] and in test [4] (setting [5]) were less than 100 nM and not above 100 nM, respectively. Turning to `C=C(C)C(=O)Nc1ccc(-c2c(-c3ccc4nc(C)oc4c3)c3c(N)ncnc3n2C)cc1` [Example 1274], the IC50 in test [3] and in test [4] (setting [5]) was 1000 to 100000 nM throughout. Consider `C#Cc1cc(C)c(-c2c(-c3ccc(Oc4nccc(C)n4)c(F)c3)c3c(N)ncnc3n2CCO)cn1` [Example 1245], for which the values for the half-inhibitory concentration (IC50) in test [3] and in test [4] (setting [5]) were less than 100 nM and not above 100 nM, respectively. On to `C#Cc1ncc(-c2c(-c3ccc(Oc4nccc(C)n4)c(F)c3)c3c(N)ncnc3n2C)c(OC)c1F` [Example 1336], for which the half-inhibitory concentration (IC50) is less than 100 nM in test [3] and not above 100 nM in test [4] (setting [5]).

Regarding `C#Cc1cc(C)c(-c2c(C3=CC[C@H](C(=O)N4CCC[C@H]4C)CC3)c3c(N)ncnc3n2C)c(F)n1` (atropisomer, axis not shown) [Example 1348], the IC50 in test [3] was 100 to 250 nM; in test [4] (SNU-16 cells), not above 100 nM. With `C=C(C)C(=O)Nc1ccc(-c2c(C3=CC[C@H](C(=O)NCC4(F)COC4)CC3)c3c(N)ncnc3n2C)cc1` [Example 1023], the half-maximal inhibitory concentration (IC50) in test [3] and in test [4] (setting [5]) was 1000 to 100000 nM in each case.

On to `C=CC(=O)N1CC(c2c(-c3ccc(Oc4cccc(C)n4)cc3)c3c(N)ncnc3n2C)C[C@@H]1C` (stereo partly shown) [Example 839], for which the IC50 in test [3] was less than 100 nM; in test [4] (setting [5]), not above 100 nM. For the compound `C=C(C)C(=O)Nc1ccc(-c2c(-c3ccc(C(=O)c4cccc(C)n4)cc3)c3c(N)ncnn3c2COC)cc1` [Example 853], the half-maximal inhibitory concentration (IC50) in test [3] is 250 to 1000 nM; in test [4] (setting [5]), 100 to 250 nM. `C#Cc1cc(CC)c(-c2c(-c3ccc(Oc4nccc(C)n4)c(F)c3)c3c(N)ncnc3n2C)cn1` [Example 1217]: the figures for the half-inhibitory concentration (IC50) in test [3] and in test [4] (setting [5]) were less than 100 nM and not above 100 nM, respectively. For `C=C(C)C(=O)Nc1ccc(-c2c(C3=CC[C@@H](C(=O)N4CCC[C@@H]4C4CC4)CC3)c3c(N)ncnc3n2C)cc1` [Example 1055], in that order: less than 100 nM and not above 100 nM.

In the case of `C=C(C)C(=O)Nc1ccc(-c2c(C3=CCCCO3)c3c(N)ncnc3n2C)cc1` [Example 1269], the IC50 in test [3] and in test [4] (setting [5]) was 1000 to 100000 nM each time. Consider `C#Cc1ncc(-c2c(-c3ccc(Oc4nccc(C)n4)c(F)c3)c3c(N)ncnc3n2C)c2ccccc12` [Example 1233], for which the IC50 in test [3] was less than 100 nM; in test [4] (setting [5]), not above 100 nM.

In the case of `C=C(C)C(=O)Nc1ccc(-c2c(-c3cnc(-c4ccccc4)s3)c3c(N)ncnc3n2C)cc1` [Example 1293], the IC50 in test [3] lay within 100 to 250 nM; in test [4] (setting [5]), 250 to 1000 nM. In the case of `C=CC(=O)Nc1ccc(-c2[nH]c3ncnc(N)c3c2-c2ccc(Oc3ccn(C)n3)cc2)cc1` [Example 822], the IC50 in test [3] and in test [4] (setting [5]) was 250 to 1000 nM throughout. `C=C(C)C(=O)Nc1cnn(C)c1-c1c(-c2ccc(Oc3nccc(C)n3)cc2)c2c(N)ncnc2n1C` [Example 1072]: the IC50 in test [3] and in test [4] (setting [5]) was 250 to 1000 nM throughout.
